The test system of data set [1] is CL141. The data set is described as follows: Cytotoxicity, sulforhodamine B (SRB) assay. Format: cell-based. The conditions noted are these: read-out: IC50 for prochlorperazine metabolites, CL141 parental cells. As to the method:
(§1) Cells were plated in 96-well plates at a density of 2000 cells per well in triplicate. The cells were treated on the third day (to ensure proper plating efficiency and vitality) to indicated agents for 48 hrs. […] Cytotoxicity was assessed using the sulforhodamine B (SRB) assay (23). Briefly, the medium was discarded, and the adherent cells were fixed by 100 μl of cold 10% trichioroacetic acid (w/v) in each well for 1 h at 4° C. After fixation, cells were stained with 100 μl/well of 0.4% (w/v, in 1% acetic acid) SRB solution for 30 min at room temperature, and then washed 5 times with 1% acetic acid. After air-drying, 100 μl of 10 mM Tris base was added to each well and the absorbance was read at 530 nm. Cytotoxicity is expressed as the percent of cells in drug treated wells relative to number of cells in the solvent only control (set to 100%). Each experiment was performed independently at least 2 times in triplicate and cytotoxicity is given as means ±SD.
(§2) A549, A549-ON, CL97, CL141, HCC827, and H441 were lung adenocarcinoma cell lines. CL152, H2170, and H226 were squamous cell carcinoma cell lines. Cell viability was determined by SRB assay. […] To determine whether side population (SP) cells, which represent a cell population with CSC characteristics, exist in NSCLC cell lines, we stained the cells with the fluorescent dye, Hoechst 33342, and analyzed the cells with flow cytometry.
In general terms: In SRB staining, fixed cells bind dye roughly in proportion to their protein.

For data set [2], the system named is CL152. The data set is described as follows: Cytotoxicity, sulforhodamine B (SRB) assay. Format: cell-based. The conditions noted are these: read-out: IC50 for prochlorperazine metabolites, CL152 parental cells. As for the experimental part: as §1, §2
Data set [3] has as its system CL141 spheres. Briefly: Cytotoxicity at sphere cells, Trypan Blue Exclusion method. Format: cell-based. The conditions noted are these: read-out: IC50 for prochlorperazine metabolites.
Data set [4] relates to CL152 spheres. Described as above. Format: cell-based. The conditions noted are these: read-out: IC50 for prochlorperazine metabolites.
Data set [5] has as its system NSCLC cell lines. As to the method: as §1, §2
Data set [6] deals with A549 cells. The data set is described as follows: Senescence, β-galactosidase (SA-β-Gal) activity. The conditions noted are these: A549, 24 hours; 1 μM prochlorperazine, 50 μM resveratrol as positive control. Format: cell-based. The source says:
EMT also plays a critical role in the regulation of cancer sternness. EMT is characterized by enhanced cell migration and invasion.

Data set [7] relates to CL141. The data set is described as follows: Clonogenic assay. The class given is cell-based. The conditions noted are these: CL141; approximately 1,000 cells seeded, 14 days. The source says: […] […] After the treatments, cells were washed with PBS, and the colonies were fixed with fix solution (methanol: acetic acid=3:1) and stained with 0.5% crystal violet in methanol. After removing the crystal violet carefully and rinse with tap water, the colonies were counted manually.

The test system of data set [8] is NCI-H441 cells expressing firefly luciferase. Briefly: NCI-H441 firefly luciferase tail vein tumor model, drug combination test. The class given is in vivo, mice. The conditions noted are these: cisplatin 1 mg/kg + pemetrexed 1 mg/kg. As to the method: In the first drug combination test, NCI-H441 cells expressing firefly luciferase (6×10^5 cells/injection) were injected into NOD/SCID mice (4-6 week of age) via the lateral tail vein for tumor establishment. […] Tumor burden from different groups were recorded by caliper. The change in tumor size was expressed as in fold change and plotted over time. Subsequently, we performed another set of drug combination test. […] For lung adenocarcinoma, the standard drug combination is pemetrexed and cisplatin whereas are used gemcitabine and cisplatin for lung squamous carcinoma. […] CL97 cancer cells (1.5×10^6 cells per injection) were injected subcutaneously into NOD/SCID mice to establish in viva tumor model.
In the drug combination test ([…]), NCI-H441 cells expressing firefly luciferase ([…] cells/injection) were injected into NOD/SCID mice (4-6 week of age) via the lateral tail vein for tumor establishment.

As a reminder, the IC50 is the concentration needed to halve the response being measured.

`Clc1ccc2c(c1)N(CCCN1CCNCC1)c1ccccc1S2` [N-desmethyl prochlorperazine]: the IC50 in data set [1] is 5 to 10 µM; in data set [2], roughly 10 µM; in data set [3] it was less than 5 µM; in data set [4], less than 5 µM. Moreover, in data set [5], the “cytotoxic effect in NSCLC cell lines compared with other metabolites” value was “better cytotoxic effect than other tested metabolites”.

As to `Oc1ccc(C=Cc2cc(O)cc(O)c2)cc1` [resveratrol], the “β-galactosidase activity (senescence)” value in data set [6] is on record as “increased β-galactosidase activity”.

Turning to `CC1(C)CCCN1CCCN1c2ccccc2Sc2ccc(Cl)cc21` [NSC 14948], the “Clonogenic assay for prochlorperazine analogs” value in data set [7] is 5-10 μM.

`CN1CCN(CCCN2c3ccccc3[S+]([O-])c3ccc(Cl)cc32)CC1` (stereo not shown) [Prochlorperazine sulfoxide]: the IC50 was greater than 20 µM in data set [1], greater than 20 µM in data set [2], 5 to 10 µM in data set [3] and greater than 10 µM in data set [4].

As for `CCc1ccc2c(c1)N(CCCN(CCCl)CCCl)c1ccccc1S2` [NSC 166184], the “Clonogenic assay for prochlorperazine analogs” value in data set [7] is given as 1-2.5 μM.

With `N.N.[Cl][Pt][Cl]` [cisplatin], the “inhibitory effect on tumor growth, cisplatin in combination with pemetrexed vs pemetrexed alone” value in data set [8] is listed as “not significantly different”.

As for `CCN(CC)CCCN1c2ccccc2Sc2ccc(Cl)cc21` [NSC 169470], the “Clonogenic assay for prochlorperazine analogs” value in data set [7] is 5-10 μM.

For the compound `C[N+]1([O-])CCN(CCCN2c3ccccc3[S+]([O-])c3ccc(Cl)cc32)CC1` (stereo not shown) [Prochlorperazine sulfoxide 4′-N-oxide], the IC50 in data set [1] was greater than 20 µM; in data set [2], greater than 20 µM; in data set [3], greater than 10 µM; in data set [4] it was greater than 10 µM.

On to `CN(C)c1ccc(-c2c3ccccc3nc3ccc(Cl)cc23)cc1` [NSC 406619], for which, in data set [7], the “Clonogenic assay for prochlorperazine analogs” value is given as 2.5-5 μM.

The values above are taken from patent US20170105999A1, “METHOD FOR TREATING DRUG RESISTANT CANCER” (NATIONAL YANG MING UNIVERSITY, priority 2014, published 2017).
